From article PMC8609999, “A Phase I trial of talazoparib in patients with advanced hematologic malignancies” (International Journal of Hematologic Oncology, 2021)
Like-named read-outs stand apart in the source and are kept apart here. Marks after values point to notes of the source that are not given here.

Tested on: patients with advanced hematologic malignancies (cohort 1: AML/MDS; cohort 2: CLL/MCL)
Format: in vivo, human
From the text: AEs were coded in accordance with The Medical Dictionary for Regulatory Activities, version 16.1. Treatment-emergent AEs (TEAEs) were defined as AEs that were new, increased in frequency, or worsened in severity, after the first talazoparib dose. AEs counted as drug-related had been classified by investigators as possibly or probably related to talazoparib.
All analyses in this open-label, dose-finding study were descriptive in nature. Descriptive summaries of continuous variables, including the mean, standard deviation (SD), median, range, and, where appropriate, 95% CI and/or interquartile range, were determined using the Statistical Analysis Software (SAS), version 9.2. Descriptive summaries of categorical variables included the number of patients and percentages. Data were summarized with respect to the dose level at which the patients started treatment. Cohorts were defined as all patients who began treatment at a given dose level.

## Cn1ncnc1[C@H]1c2n[nH]c(=O)c3cc(F)cc(c23)N[C@@H]1c1ccc(F)cc1 [talazoparib]
Cohort 1, 0.10 mg/day (n = 3)
  Any AEs of CTCAE Grade of 5 (death): 0 (0.0) n (%)
  Any study drug-related AEs of CTCAE Grade 5 (death): 0 (0.0) n (%)
Cohort 1, 0.20 mg/day (n = 3)
  Any AEs of CTCAE Grade of 5 (death): 2 (66.7) n (%)
  Any study drug-related AEs of CTCAE Grade 5 (death): 0 (0.0) n (%)
Cohort 1, 0.30 mg/day (n = 5)
  Any AEs of CTCAE Grade of 5 (death): 1 (20.0) n (%)
  Any study drug-related AEs of CTCAE Grade 5 (death): 0 (0.0) n (%)
Cohort 1, 0.45 mg/day (n = 3)
  Any AEs of CTCAE Grade of 5 (death): 2 (66.7) n (%)
  Any study drug-related AEs of CTCAE Grade 5 (death): 0 (0.0) n (%)
Cohort 1, 0.90 mg/day (n = 4)
  Any AEs of CTCAE Grade of 5 (death): 3 (75.0) n (%)
  Any study drug-related AEs of CTCAE Grade 5 (death): 0 (0.0) n (%)
Cohort 1, 1.35 mg/day (n = 3)
  Any AEs: 3 (100) n (%)
  Any AEs leading to dose interruption or modification: 0 (0.0) n (%)
  Any AEs leading to study drug withdrawn: 0 (0.0) n (%)
  Any AEs of CTCAE Grade 3 or 4: 3 (100) n (%)
  Any AEs of CTCAE Grade of 5 (death): 1 (33.3) n (%)
  Any SAEs: 2 (66.7) n (%)
  Any SAEs of CTCAE Grade of 3 or 4: 2 (66.7) n (%)
  Any study drug-related AEs: 3 (100) n (%)
  Any study drug-related AEs leading to dose interruption or modification: 0 (0.0) n (%)
  Any study drug-related AEs leading to study drug withdrawal: 0 (0.0) n (%)
  Any study drug-related AEs of CTCAE Grade 5 (death): 0 (0.0) n (%)
  Any study drug-related AEs of CTCAE Grade of 3 or 4: 2 (66.7) n (%)
  Any study drug-related SAEs: 0 (0.0) n (%)
Cohort 1, 2.00 mg/day (n = 4)
  Any AEs of CTCAE Grade of 5 (death): 3 (75.0) n (%)
  Any study drug-related AEs of CTCAE Grade 5 (death): 1 (25.0)^§ n (%)
Cohort 1, All (n = 25)
  Any AEs of CTCAE Grade of 5 (death): 12 (48.0) n (%)
  Any study drug-related AEs of CTCAE Grade 5 (death): 1 (4.0)^§ n (%)
Cohort 2, 0.10 mg/day (n = 3)
  Any AEs of CTCAE Grade of 5 (death): 1 (33.3) n (%)
  Any study drug-related AEs of CTCAE Grade 5 (death): 0 (0.0) n (%)
Cohort 2, 0.90 mg/day (n = 5)
  Any AEs of CTCAE Grade of 5 (death): 0 (0.0) n (%)
  Any study drug-related AEs of CTCAE Grade 5 (death): 0 (0.0) n (%)
Cohort 2, All (n = 8)
  Any AEs of CTCAE Grade of 5 (death): 1 (12.5) n (%)
  Any study drug-related AEs of CTCAE Grade 5 (death): 0 (0.0) n (%)
Both cohorts, N = 33, during study or within 30 days after last dose
  Deaths: 39.4%
human, in vivo
  Patients with Grade 3/4 TEAEs: 84.8%
  Patients with TEAEs leading to dose interruption/reduction related to study drug: 30.3%
  Patients with a Grade 3/4 SAE: 51.5%
  Patients with a drug-related SAE: 9.1%
  Patients with at least one TEAE leading to dose interruption and/or reduction: 45.5%
  Patients with drug-related Grade 3/4 TEAEs: 42.4%
  Patients with drug-related TEAEs (possibly or probably related): 69.7%
  Patients with serious AEs (SAEs): 75.8%
N = 33, All grades (Grade 1–4 only)
  TEAE: Fatigue: 13 (39.4) n (%)
